In the supplement of paper PMC10307832:

What was measured:
Experiment in all cases: relative viability (nuclei count vs DMSO), 5 days (fraction); higher = more cells survive
[1] = compound: OCc1c[nH]c2ccccc12 [Indole-3-carbinol] + CC(=O)Nc1cccc(-n2c(=O)n(C3CC3)c(=O)c3c(Nc4ccc(I)cc4F)n(C)c(=O)c(C)c32)c1 [Trametinib] (partner 0.02 µM)
How it was run: (§1)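 Lung cancer cell lines in 1536-well plates were dosed by pin tool the day after seeding, either with one drug alone or with a fixed anchor-drug dose plus five library-drug doses (not always all listed) in √10 steps. After 5 days, cells were fixed and their nuclei stained in one step (final 0.05% Triton X-100, 1% formaldehyde, 1 ug/ml Hoechst), then counted on 4× images. Relative viability is the nuclei count in treated wells divided by that in vehicle wells. Values are medians of duplicate plates.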

[2] = compound: OCc1c[nH]c2ccccc12 [Indole-3-carbinol] + CC1(C)CCC(c2ccc(Cl)cc2)=C(CN2CCN(c3ccc(C(=O)NS(=O)(=O)c4ccc(N[C@H](CCN5CCOCC5)CSc5ccccc5)c(S(=O)(=O)C(F)(F)F)c4)cc3)CC2)C1 [Navitoclax] (partner 0.5 µM)
How it was run: as §1

[3] = compound: OCc1c[nH]c2ccccc12 [Indole-3-carbinol] + CCNC(=O)c1noc(-c2cc(C(C)C)c(O)cc2O)c1-c1ccc(CN2CCOCC2)cc1 [Luminespib] (partner 0.01 µM)
How it was run: as §1

[4] = compound: OCc1c[nH]c2ccccc12 [Indole-3-carbinol] + NC(=O)Nc1cc(-c2cccc(F)c2)sc1C(=O)N[C@H]1CCCNC1 [AZD7762] (partner 0.2 µM)
How it was run: as §1

[5] = compound: OCc1c[nH]c2ccccc12 [Indole-3-carbinol] + Nc1ncn([C@H]2C[C@H](O)[C@@H](CO)O2)c(=O)n1 [Decitabine] (partner 2 µM)
How it was run: as §1

Cell Line	relative viability ([1]; first compound 0.253 µM)	relative viability ([1]; first compound 0.8 µM)	relative viability ([1]; first compound 2.53 µM)	relative viability ([1]; first compound 8 µM)	relative viability ([2]; first compound 0.253 µM)	relative viability ([2]; first compound 0.8 µM)	relative viability ([2]; first compound 2.53 µM)	relative viability ([2]; first compound 8 µM)	relative viability ([3]; first compound 0.253 µM)	relative viability ([3]; first compound 0.8 µM)	relative viability ([3]; first compound 2.53 µM)	relative viability ([3]; first compound 8 µM)	relative viability ([4]; first compound 0.253 µM)	relative viability ([4]; first compound 0.8 µM)	relative viability ([4]; first compound 2.53 µM)	relative viability ([4]; first compound 8 µM)	relative viability ([5]; first compound 0.253 µM)	relative viability ([5]; first compound 0.8 µM)	relative viability ([5]; first compound 2.53 µM)	relative viability ([5]; first compound 8 µM)
LK-2	0.674	0.538	0.812	0.732	0.777	0.769	1.1	0.821	0.214	0.203	0.229	0.181	0.454	0.363	0.324	0.539	0.308	0.231	0.374	0.327
LOU-NH91	0.81	0.747	0.788	0.802	0.71	0.599	0.673	0.74	0.369	0.342	0.306	0.356	0.791	0.703	0.77	0.755	0.827	0.781	0.818	0.831
LU99A	0.5	0.517	0.521	0.545	0.802	0.847	0.832	0.73	0.237	0.199	0.209	0.207	0.379	0.392	0.434	0.329	0.833	0.862	0.944	0.938
LXF-289	0.678	0.693	0.651	0.656	0.966	0.96	0.904	0.927	0.787	0.754	0.647	0.575	1.25	1.1	1.13	1.03	0.383	0.324	0.362	0.369
NCI-H23	0.315	0.319	0.43	0.414	0.853	0.843	0.856	0.762	0.219	–	0.233	0.223	0.315	0.263	0.256	0.294	0.335	0.314	0.316	0.291
NCI-H322M	0.517	0.411	0.496	0.451	1.37	1.26	1.14	1.18	0.828	0.861	0.895	0.783	0.607	0.596	0.514	0.613	0.725	0.659	0.722	0.675
NCI-H441	0.59	0.547	0.469	0.475	0.809	0.568	0.579	0.688	0.324	0.334	0.456	0.301	1.34	1.23	1.27	1.15	0.241	0.245	0.283	0.234
NCI-H460	0.119	0.151	0.11	0.129	1.2	1.46	1.08	1	0.0368	0.037	0.0298	0.0346	0.652	0.602	0.679	0.645	0.564	0.44	0.518	0.473
NCI-H596	0.779	0.829	0.809	0.762	0.977	1.02	0.921	0.826	0.734	1.01	0.913	1	1.06	1.07	1.11	1.06	1.04	0.971	1.06	0.959
NCI-H647	0.562	0.405	0.508	0.524	1.16	–	1.09	1.01	0.261	0.199	0.156	0.236	0.604	0.293	0.463	0.551	0.417	0.438	0.455	0.354
NCI-H727	0.372	0.393	0.412	0.392	0.359	0.355	0.364	0.497	0.355	0.452	0.344	0.328	0.664	0.834	0.579	0.551	0.997	0.782	0.884	0.825
NCI-H838	0.593	0.499	0.525	0.495	1.18	1.14	1.18	1.08	0.292	0.305	0.308	0.303	1.05	0.84	0.975	0.883	0.486	0.498	0.518	0.434
NCI-H1355	0.43	0.343	0.386	0.415	0.967	0.919	0.858	0.896	0.754	0.764	0.618	0.643	0.859	0.806	0.799	0.778	0.342	0.359	0.379	0.371
NCI-H1395	1	1.01	1.08	0.995	1.23	1.16	1.19	1.08	0.606	0.813	0.817	0.686	0.404	0.41	0.379	0.399	0.723	0.771	0.695	0.685
NCI-H1437	0.549	0.558	0.459	0.458	1.15	1.14	1.18	1.03	1.07	1.2	1.13	1.11	1.21	1.22	1.15	1.09	0.591	0.599	0.599	0.591
NCI-H1651	0.819	0.787	0.823	0.822	1.03	1.07	1.05	0.925	0.848	0.877	0.686	0.753	0.448	0.441	0.438	0.437	0.653	0.566	0.596	0.622

Cell Line	relative viability ([1]; first compound 0.253 µM)	relative viability ([1]; first compound 0.8 µM)	relative viability ([1]; first compound 2.53 µM)	relative viability ([1]; first compound 8 µM)	relative viability ([2]; first compound 0.253 µM)	relative viability ([2]; first compound 0.8 µM)	relative viability ([2]; first compound 2.53 µM)	relative viability ([2]; first compound 8 µM)	relative viability ([3]; first compound 0.253 µM)	relative viability ([3]; first compound 0.8 µM)	relative viability ([3]; first compound 2.53 µM)	relative viability ([3]; first compound 8 µM)	relative viability ([4]; first compound 0.253 µM)	relative viability ([4]; first compound 0.8 µM)	relative viability ([4]; first compound 2.53 µM)	relative viability ([4]; first compound 8 µM)	relative viability ([5]; first compound 0.253 µM)	relative viability ([5]; first compound 0.8 µM)	relative viability ([5]; first compound 2.53 µM)	relative viability ([5]; first compound 8 µM)
NCI-H1666	0.828	0.85	0.939	0.788	0.896	1.05	0.973	0.893	0.914	0.925	1.01	1.05	0.914	0.743	0.827	0.739	0.809	0.673	0.696	0.661
NCI-H1734	0.676	0.762	0.617	0.651	0.899	0.876	0.801	0.727	0.242	0.246	0.194	0.221	0.519	0.601	0.551	0.512	0.51	0.456	0.477	0.46
NCI-H1755	0.784	0.737	0.815	0.733	1.02	1.01	0.975	0.984	0.554	0.407	0.49	0.348	0.463	0.42	0.5	0.42	0.737	0.686	0.725	0.638
NCI-H1792	0.436	0.369	0.432	0.379	0.655	0.619	0.737	0.644	0.416	0.484	0.368	0.398	0.734	0.786	0.901	0.77	0.569	0.603	0.506	0.489
NCI-H1793	0.403	0.442	0.455	0.481	0.423	0.402	0.508	0.393	0.171	0.179	0.142	0.175	0.424	0.468	0.507	0.455	0.502	0.465	0.472	0.479
NCI-H1915	0.282	0.294	0.342	0.296	0.753	0.787	0.768	0.762	0.695	0.794	0.741	0.662	0.655	0.625	0.767	0.737	0.255	0.246	0.275	0.27
NCI-H1944	0.425	0.378	0.393	0.417	1.13	1.01	1.11	1.03	0.792	0.682	0.842	0.79	0.517	0.441	0.509	0.54	0.46	0.456	0.441	0.404
NCI-H1975	0.559	0.493	0.337	0.641	1.14	1.27	1.11	1.08	0.343	0.224	0.171	0.21	0.624	0.79	0.764	0.613	0.392	0.38	0.415	0.436
NCI-H1993	0.483	0.519	0.513	0.554	0.958	1.1	0.89	1.01	1.02	0.915	0.889	0.823	0.827	0.876	0.691	0.843	0.641	0.657	0.573	0.623
NCI-H2085	0.884	0.514	0.56	0.622	1.1	1.02	1.15	1.05	0.456	0.429	0.395	0.498	0.965	1.01	1.05	0.893	0.5	0.63	0.483	0.506
NCI-H2087	0.179	0.23	0.193	0.201	1.04	1.22	1.02	0.967	0.119	0.194	0.177	0.172	1.31	1.46	1.33	1.15	0.278	0.323	0.255	0.341
NCI-H2126	0.573	0.577	0.541	0.509	0.824	0.872	0.865	0.83	0.887	0.876	0.992	0.851	0.999	1.08	1.02	1.01	0.6	0.601	0.547	0.54
NCI-H2170	0.882	0.859	0.892	0.869	0.577	0.766	0.682	0.607	0.74	0.665	0.841	0.624	1.01	0.898	0.89	0.894	0.505	0.494	0.446	0.473
NCI-H2347	0.422	0.276	0.296	0.29	0.765	0.782	0.814	0.699	0.609	0.215	0.425	0.59	0.936	0.676	0.702	0.765	0.678	0.58	0.509	0.574
NCI-H2405	0.634	0.615	0.672	0.703	1.06	0.563	0.964	0.837	0.847	0.812	0.859	0.696	0.839	0.727	0.755	0.659	0.829	0.711	0.852	0.635
NCI-H3122	0.229	0.255	0.234	0.248	1.04	1.01	1.02	1.01	0.0769	0.123	0.108	0.0975	1.1	1	1.07	0.899	0.462	0.414	0.37	0.451
